Experimental data taken from ChEMBL document CHEMBL2021896, “A novel pyrimidine derivatives with aryl urea, thiourea and sulfonamide moieties: synthesis, anti-inflammatory and antimicrobial evaluation” (2012).
Calls of active or inactive are those of the source. The rule behind the calls is not given here.

Assays:
[1] = test system: THP-1; test: Antiinflammatory activity in human PMA-stimulated THP1 cells assessed as inhibition of LPS-induced TNFalpha production at 1 uM treated 30 mins before LPS challenge measured after 24 hrs by ELISA; assay type: functional
[2] = test system: THP-1; test: Antiinflammatory activity in human PMA-stimulated THP1 cells assessed as inhibition of LPS-induced IL-6 production at 1 uM treated 30 mins before LPS challenge measured after 24 hrs by ELISA; assay type: functional
[3] = test system: THP-1; test: Antiinflammatory activity in human PMA-stimulated THP1 cells assessed as inhibition of LPS-induced TNFalpha production at 10 uM treated 30 mins before LPS challenge measured after 24 hrs by ELISA; assay type: functional
[4] = test system: Aspergillus flavus; test: Antifungal activity against Aspergillus flavus up to 200 ug/ml by agar well diffusion method; assay type: functional, organism-based
[5] = test system: Aspergillus niger; test: Antifungal activity against Aspergillus niger up to 200 ug/ml by agar well diffusion method; assay type: functional, organism-based
[6] = test system: Staphylococcus aureus; test: Antibacterial activity against Staphylococcus aureus up to 200 ug/ml by agar well diffusion method; assay type: functional, organism-based
[7] = test system: Bacillus subtilis; test: Antibacterial activity against Bacillus subtilis up to 200 ug/ml by agar well diffusion method; assay type: functional, organism-based
[8] = test system: Escherichia coli; test: Antibacterial activity against Escherichia coli up to 200 ug/ml by agar well diffusion method; assay type: functional, organism-based
[9] = test system: Candida albicans; test: Antifungal activity against Candida albicans up to 200 ug/ml by agar well diffusion method; assay type: functional, organism-based
[10] = test system: Salmonella typhimurium; test: Antibacterial activity against Salmonella typhimurium up to 200 ug/ml by agar well diffusion method; assay type: functional, organism-based; conditions: Salmonella enterica subsp. enterica serovar Typhimurium
[11] = test system: THP-1; test: Antiinflammatory activity in human PMA-stimulated THP1 cells assessed as inhibition of LPS-induced IL-6 production at 10 uM treated 30 mins before LPS challenge measured after 24 hrs by ELISA; assay type: functional
[12] = test system: Fusarium solani; test: Antifungal activity against Fusarium solani up to 200 ug/ml by agar well diffusion method; assay type: functional, organism-based

SMILES | inhibition at 1 µM [1] [%] | inhibition at 1 µM [2] [%] | inhibition at 10 µM [3] [%] | Activity [4] | Activity [5] | Activity [6] | Activity [7] | Activity [8] | Activity [9] | Activity [10] | inhibition at 10 µM [11] [%] | Activity [12]
C[C@@H]1C[C@H]2[C@@H]3CCC4=CC(=O)C=C[C@]4(C)[C@@]3(F)[C@@H](O)C[C@]2(C)[C@@]1(O)C(=O)CO [DEXAMETHASONE] | 72 | 86 | – | – | – | – | – | – | – | – | – | –
Cc1ccccc1NC(=S)Nc1ccc(-c2cc(Nc3cccc(C(F)(F)F)c3)ncn2)cc1 | – | – | 0 | inactive | inactive | inactive | inactive | inactive | inactive | inactive | 0 | inactive
